pIC50: −log10 of the molar value.
Legend:
[1] = target: T1, active p38 alpha enzyme (Upstate Biotechnology) (Homo sapiens, UniProt Q16539); assay: p38α biochemical assay (ATP turnover, luminescent detection, Cambrex PKlight); settings: Table 1 Biological Activity
T1 construct: purchased Upstate Biotechnology
Procedure, shortened: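 In this kinase reaction, p38α used MapkapK2 as phosphorylation substrate at low ATP (1.4 uM final) over 2 hours at 30C, and activity was followed as ATP turnover by luminescence.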

TNF-α production = TNF-α production by LPS-stimulated rats (ELISA); type: in vivo, Male Lewis rats; settings: rat, −1 hr before LPS; for inhibition at 30 mg/kg / inhibition at 10 mg/kg: read-out: LPS Induced TNF alpha (−1 hr) In Vivo (+) = >15% Inhibition (−) = ≦15% Inhibition; for ED50: oral dosing, read-out: LPS Induced TNF alpha (−1 hr) In Vivo (+) = ED50 ≦ 10 (−) = ED50 > 10
Description: TNF-α Production by LPS-Stimulated Mice
Male Lewis rats (180-200 g) were injected intraperitoneally with lipopolysaccharide (LPS) (50 μg/kg of E. coli strain 0111:B4, Sigma) suspended in sterile saline. Ninety minutes later, mice were sedated by CO2:O2 inhalation and a blood sample was obtained. Serum was separated and analyzed for TNF-α concentrations by commercial ELISA assay per the manufacturer's instructions (R&D Bioscience). Test compounds were administered orally at various times before LPS injection. The compounds were dosed either as suspensions or as solutions in various vehicles or solubilizing agents.
Compounds were dosed 0.5 to 3 hours before LPS stimulation. Rats were anaesthetized with Isofluor and injected i.v. with 0.3 mg/kg of LPS* in a volume of 0.3 ml sterile saline. Ninety minutes after the LPS injection, blood samples were collected into heparin tubes for preparation of plasma samples. Repression of TNFα production is assessed by commercial ELISA and reported below in Table 2.

T1 sequence (Q16539 whole entry): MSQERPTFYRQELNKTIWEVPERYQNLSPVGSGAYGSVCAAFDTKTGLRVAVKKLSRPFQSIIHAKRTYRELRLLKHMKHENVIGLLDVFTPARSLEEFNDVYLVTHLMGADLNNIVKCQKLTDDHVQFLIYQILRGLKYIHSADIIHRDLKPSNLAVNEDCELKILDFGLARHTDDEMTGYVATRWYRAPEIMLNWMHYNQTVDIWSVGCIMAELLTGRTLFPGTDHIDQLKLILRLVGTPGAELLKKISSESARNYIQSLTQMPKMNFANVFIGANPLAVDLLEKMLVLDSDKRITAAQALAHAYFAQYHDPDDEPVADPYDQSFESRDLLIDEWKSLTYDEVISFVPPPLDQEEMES

Compound	pIC50 ([1]; p38α kinase)	also measured
Cc1onc(-c2ccccc2)c1-c1ccn(C(=O)NC(C)C)n1 [Example 1, 3-(5-Methyl-3-phenyl-isoxazol-4-yl)pyrazole-1-carboxylic acid isopropylamide]	–	pIC50 ([1]; p38α biochemical assay): ≥ 6.00; inhibition at 30 mg/kg (TNF-α production): > 15%
Cc1onc(-c2ccc(F)cc2F)c1-c1ccn(C(=O)NC(C)C)n1 [Example 17, 3-|3-(2,4-Difluoro-phenyl)-5-methyl-isoxazol-4-yl|-pyrazole-1-carboxylic acid isopropylamide]	–	pIC50 ([1]; p38α biochemical assay): ≥ 6.00; inhibition at 30 mg/kg (TNF-α production): > 15%
Cc1onc(-c2ccc(F)cc2)c1-c1ccn(C(=O)NC(C)C)n1 [Example 18, 3-|3-(4-Fluoro-phenyl)-5-methyl-isoxazol-4-yl|-pyrazole-1-carboxylic acid isopropylamide]	–	pIC50 ([1]; p38α biochemical assay): ≥ 6.00; inhibition at 30 mg/kg (TNF-α production): > 15%
CC(C)NC(=O)n1ccc(-c2c(-c3ccc(F)cc3)noc2CN2CCOCC2)n1 [Example 26, 3-|3-(4-Fluoro-phenyl)-5-morpholin-4-ylmethyl-isoxazol-4-yl|-pyrazole-1-carboxylic acid isopropylamide]	–	pIC50 ([1]; p38α biochemical assay): ≥ 6.00; inhibition at 10 mg/kg (TNF-α production): > 15%; ED50 (TNF-α production): ≤ 10 mg/kg
Cc1onc(-c2ccc(F)cc2)c1-c1nc(C(=O)NC(C)C)cs1 [Example 27, 2-|3-(4-Fluoro-phenyl)-5-methyl-isoxazol-4-yl|-thiazole-4-carboxylic acid isopropylamide]	–	pIC50 ([1]; p38α biochemical assay): ≥ 6.00; inhibition at 10 mg/kg (TNF-α production): > 15%; ED50 (TNF-α production): > 10 mg/kg
CC(C)NC(=O)c1csc(-c2c(-c3ccc(F)cc3)n[nH]c2C2CCN(C(=O)c3ccc(C#N)cc3)CC2)n1 [Example 2171, 2-|5-|1-(4-Cyano-benzoyl)-piperidin-4-yl|-3-(4-fluoro-phenyl)-1H-pyrazol-4-yl|-thiazole-4-carboxylic acid isopropylamide]	< 6.00	–
CC(C)NC(=O)c1csc(-c2c(-c3ccc(F)cc3)c(=O)[nH]n2C)n1 [Example 2182, 2-|4-(4-Fluoro-phenyl)-2-methyl-5-oxo-2,5-dihydro-1H-pyrazol-3-yl|-thiazole-4-carboxylic acid isopropyl amide]	< 6.00	–
CC(C)NC(=O)c1csc(-c2c(-c3ccc(F)cc3)c(=O)[nH]n2C2CCN(C(=O)OCc3ccccc3)CC2)n1 [Example 2183, 4-|4-(4-Fluoro-phenyl)-5-(4-isopropylcarbamoyl-thiazol-2-yl)-3-oxo-2,3-dihydro-pyrazol-1-yl|-piperidine-1-carboxylic acid benzyl ester]	< 6.00	–
CC(C)NC(=O)c1ccn(-c2c(-c3ccc(F)cc3)noc2C2CCNCC2)n1 [Example 2188, 1-|3-(4-Fluoro-phenyl)-5-piperidin-4-yl-isoxazol-4-yl|-1H-pyrazole-3-carboxylic acid isopropylamide]	< 6.00	–
CC(C)NC(=O)c1csc(-c2c(-c3ccc(F)cc3)ncn2C2CC(C)(C)NC(C)(C)C2)n1 [Example 2189, 2-|5-(4-Fluoro-phenyl)-3-(2,2,6,6-tetramethyl-piperidin-4-yl)-3H-imidazol-4-yl|-thiazole-4-carboxylic acid isopropylamide]	< 6.00	–
CCN(C(=O)NCCCN(C)C)C(=O)c1csc(-c2c(-c3ccc(F)cc3)ncn2C2CCNCC2)n1 [Example 2192, 3-(3-Dimethylamino-propyl)-1-ethyl-1-{2-|5-(4-fluoro-phenyl)-3-piperidin-4-yl-3H-imidazol-4-yl|-thiazole-4-carbonyl}-urea]	< 6.00	–
CC(C)NC(=O)c1csc(-c2c(-c3ccc(F)cc3)ncn2C2CCN(CCO)CC2)n1 [Example 2193, 2-{5-(4-Fluoro-phenyl)-3-|1-(2-hydroxy-ethyl)-piperidin-4-yl|-3H-imidazol-4-yl}-thiazole-4-carboxylic acid isopropylamide]	< 6.00	–
CC(=O)N1CCC(n2cnc(-c3ccc(F)cc3)c2-c2nc(C(=O)NC(C)C)cs2)CC1 [Example 2194, 2-|3-(1-Acetyl-piperidin-4-yl)-5-(4-fluoro-phenyl)-3H-imidazol-4-yl|-thiazole-4-carboxylic acid isopropylamide]	≥ 6.00	–
Cc1[nH]nc(-c2ccc(F)cc2)c1-c1nc(C(=O)NC(C)C)ns1 [Example 2195, 5-|3-(4-Fluoro-phenyl)-5-methyl-1H-pyrazol-4-yl|-|1,2,4|thiadiazole-3-carboxylic acid isopropylamide]	< 6.00	–
Cc1[nH]nc(-c2ccc(F)cc2)c1-c1nc(C(=O)NC(C)C)no1 [Example 2196, 5-|3-(4-Fluoro-phenyl)-5-methyl-1H-pyrazol-4-yl|-|1,2,4|oxadiazole-3-carboxylic acid isopropylamide]	< 6.00	–

The next lines start with results.

pIC50 ([1]; p38α kinase)	Compound	also measured
≥ 6.00	COC(=O)N1CCC(c2[nH]nc(-c3ccc(F)cc3)c2-c2nc(C(=O)NC(C)C)cs2)CC1 [Example 2172, 4-|5-(4-Fluoro-phenyl)-4-(4-isopropyl-carbamoyl-thiazol-2-yl)-2H-pyrazol-3-yl|-piperidine-1-carboxylic acid methyl ester]	–
≥ 6.00	COCC(=O)N1CCC(c2[nH]nc(-c3ccc(F)cc3)c2-c2nc(C(=O)NC(C)C)cs2)CC1 [Example 2173, 2-{3-(4-Fluoro-phenyl)-5-|1-(2-methoxy-acetyl)-piperidin-4-yl|-1H-pyrazol-4-yl}-thiazole-4-carboxylic acid isopropylamide]	–
≥ 6.00	CC(C)NC(=O)c1csc(-c2c(-c3ccc(F)cc3)n[nH]c2C2CCN(C(=O)C(F)(F)F)CC2)n1 [Example 2174, 2-{3-(4-Fluoro-phenyl)-5-|1-(2,2,2-trifluoro-acetyl)-piperidin-4-yl|-1H-pyrazol-4-yl}-thiazole-4-carboxylic acid isopropylamide]	–
≥ 6.00	CC(C)NC(=O)c1csc(-c2c(-c3ccc(F)cc3)n[nH]c2C2CCN(C(=O)c3ncc[nH]3)CC2)n1 [Example 2175, 2-{3-(4-Fluoro-phenyl)-5-|1-(1H-imidazole-2-carbonyl)-piperidin-4-yl|-1H-pyrazol-4-yl}-thiazole-4-carboxylic acid isopropylamide]	–
≥ 6.00	CC(=O)C(=O)N1CCC(c2[nH]nc(-c3ccc(F)cc3)c2-c2nc(C(=O)NC(C)C)cs2)CC1 [Example 2176, 2-{3-(4-Fluoro-phenyl)-5-|1-(2-oxo-propionyl)-piperidin-4-yl|-1H-pyrazol-4-yl}-thiazole-4-carboxylic acid isopropylamide]	–
≥ 6.00	CC(=O)NCC(=O)N1CCC(c2[nH]nc(-c3ccc(F)cc3)c2-c2nc(C(=O)NC(C)C)cs2)CC1 [Example 2177, 2-|5-|1-(2-Acetylamino-acetyl)-piperidin-4-yl|-3-(4-fluoro-phenyl)-1H-pyrazol-4-yl|-thiazole-4-carboxylic acid isopropylamide]	–
≥ 6.00	CC(C)NC(=O)c1csc(-c2c(-c3ccc(F)cc3)n[nH]c2C2CCN(C(=O)c3ccncc3)CC2)n1 [Example 2178, 2-{3-(4-Fluoro-phenyl)-5-|1-(pyridine-4-carbonyl)-piperidin-4-yl|-1H-pyrazol-4-yl}-thiazole-4-carboxylic acid isopropylamide]	–
≥ 6.00	CC(C)NC(=O)c1csc(-c2c(-c3ccc(F)cc3)n[nH]c2C2CCN(C(=O)c3cccnc3)CC2)n1 [Example 2179, 2-{3-(4-Fluoro-phenyl)-5-|1-(pyridine-3-carbonyl)-piperidin-4-yl|-1H-pyrazol-4-yl}-thiazole-4-carboxylic acid isopropylamide]	–
≥ 6.00	CC(C)NC(=O)c1csc(-c2[nH][nH]c(=O)c2-c2ccc(F)cc2)n1 [Example 2180, 2-|4-(4-Fluoro-phenyl)-5-oxo-2,5-dihydro-1H-pyrazol-3-yl|-thiazole-4-carboxylic acid isopropylamide]	–
≥ 6.00	CC(=O)N1CCC(c2onc(-c3ccc(F)cc3)c2-c2nc(C(=O)NC(C)C)cs2)CC1 [Example 2184, 2-|5-(1-Acetyl-piperidin-4-yl)-3-(4-fluoro-phenyl)-isoxazol-4-yl|-thiazole-4-carboxylic acid isopropylamide]	–
≥ 6.00	O=C(NCC(F)(F)F)c1csc(-c2c(-c3ccc(F)cc3)ncn2C2CCNCC2)n1 [Example 2185, 2-|5-(4-Fluoro-phenyl)-3-piperidin-4-yl-3H-imidazol-4-yl|-thiazole-4-carboxylic acid (2,2,2-trifluoro-ethyl)-amide]	–
≥ 6.00	O=C(NC1CCCC1)c1csc(-c2c(-c3ccc(F)cc3)ncn2C2CCNCC2)n1 [Example 2190, 2-|5-(4-Fluoro-phenyl)-3-piperidin-4-yl-3H-imidazol-4-yl|-thiazole-4-carboxylic acid cyclopentylamide]	–
≥ 6.00	O=C(NC1CCCCC1)c1csc(-c2c(-c3ccc(F)cc3)ncn2C2CCNCC2)n1 [Example 2191, 2-|5-(4-Fluoro-phenyl)-3-piperidin-4-yl-3H-imidazol-4-yl|-thiazole-4-carboxylic acid cyclohexylamide]	–

Reference: patent publication US20060252807A1, “Novel ortho-terphenyl inhibitors of p38 kinase and methods of treating inflammatory disorders” (Kalypsys, Inc., priority 2005, published 2006)
